The values that follow come from publication PMC8541628, “Development of Novel Quinoline-Based Sulfonamides as Selective Cancer-Associated Carbonic Anhydrase Isoform IX Inhibitors” (International Journal of Molecular Sciences, 2021).

In data set [1] the target is hCA IX (Homo sapiens, UniProt Q16790). The experiment in a line: stopped flow carbon dioxide hydrase assay, hCA IX. As to conditions: for Selectivity ratio I/IX: hCA IX over hCA I; for Selectivity ratio II/IX: hCA IX over hCA II.
Data set [2] has as its target hCA XII (Homo sapiens, UniProt O43570). The experiment in a line: stopped flow carbon dioxide hydrase assay, hCA XII. The note with it: for Selectivity ratio I/XII: hCA XII over hCA I; for Selectivity ratio II/XII: hCA XII over hCA II.
Data set [3] deals with hCA I (Homo sapiens, UniProt P00915). As to the kind of experiment: stopped flow carbon dioxide hydrase assay, hCA I.
hCA I, sequence (P00915 whole entry): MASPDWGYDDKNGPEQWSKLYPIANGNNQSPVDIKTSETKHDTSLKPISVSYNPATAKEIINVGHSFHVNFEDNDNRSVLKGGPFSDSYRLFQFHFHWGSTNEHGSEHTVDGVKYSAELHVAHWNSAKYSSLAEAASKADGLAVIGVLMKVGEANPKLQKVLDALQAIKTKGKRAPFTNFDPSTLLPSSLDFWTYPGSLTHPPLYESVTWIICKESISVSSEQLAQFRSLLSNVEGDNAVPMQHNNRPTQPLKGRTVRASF
The target of data set [4] is hCA II (Homo sapiens, UniProt P00918). The experiment in a line: stopped flow carbon dioxide hydrase assay, hCA II.
Data set [5] has as its system MCF-7. The experiment in a line: 72 h MTT anti-proliferative assay under hypoxic conditions, MCF-7. The data set is classed as cell-based. As to conditions: Homo sapiens, MCF7, mean ± S.D. of three experiments. The method, then: Therefore, QBS 11c and 13b were further screened for their potential in vitro anti-proliferative action against two breast cancer cell lines (MDA-MB-231 and MCF-7) under hypoxic conditions, exploiting a 72 h MTT assay protocol and using Doxorubicin as a positive control drug.
All adopted procedures for the conducted in vitro biological assays were performed as described earlier; CA (stopped-flow), cytotoxicity (MTT [37, 38]), and assessment of apoptotic markers assays, as well as induction of hypoxia with cobalt chloride, and were mentioned in the Supporting Materials.
(§1) 1. Carbonic anhydrase inhibition assay
16) herein reported have were assayed utilizing an instrument of Applied Photophysics stopped-flow. The enzymes are recombinant proteins prepared in our lab. Phenol red (at a concentration of 0.2 mM) has been used as indicator, working at the absorbance maximum of 557 nm, with 20 mM Hepes (pH 7.5) as buffer, and 20 mM Na2SO4 (for maintaining constant the ionic strength), […]
parameters and inhibition constants. For each inhibitor at least six traces of the initial 5-10% of the reaction have been used for determining the initial velocity . Th e un cat aly zed rates were determined in the same manner and subtracted from the total observed rates. Stock solutions of inhibitor (0.1 mM) were prepared in distilled-deionized water and dilutions up to 0.01 nM were done thereafter with the assay buffer. Inhibitor and enzyme solutions were preincubated together for 15 min at room temperature prior to assay, in order to allow fo r the formation of the E-I complex. […]
Cells were sub-cultured with try psine /EDTA solution, counted with haemocy tometer and plated onto 96-well plates (5000 cells/well) and left overnight to form a semi-confluent […]
monolay er. […] DMSO (100 µl/well) was added to dissolve the formazan crystals with shaking for 10 min after which the absorbance was read at 590 nm against no cell blanks on a FLuo Star Optima microplate reader (BMG technologies, Germany). Cell proliferation was calculated comparing the OD values of the DMSO control wells and those of the samples

Data set [6] relates to MDA-MB-231. The experiment in a line: 72 h MTT anti-proliferative assay under hypoxic conditions, MDA-MB-231. The data set is classed as cell-based. The note with it: Homo sapiens, mean ± S.D. of three experiments.
Text: as §1
The enzymes are recombinant proteins prepared in our lab.
parameters and inhibition constants.
2. Anti-proliferative action toward human breast cell lines
On the technique in general: Formazan colour is commonly taken as a measure of viable cells.

The structures appear in SMILES notation.

hCA XII, sequence (O43570 25-354): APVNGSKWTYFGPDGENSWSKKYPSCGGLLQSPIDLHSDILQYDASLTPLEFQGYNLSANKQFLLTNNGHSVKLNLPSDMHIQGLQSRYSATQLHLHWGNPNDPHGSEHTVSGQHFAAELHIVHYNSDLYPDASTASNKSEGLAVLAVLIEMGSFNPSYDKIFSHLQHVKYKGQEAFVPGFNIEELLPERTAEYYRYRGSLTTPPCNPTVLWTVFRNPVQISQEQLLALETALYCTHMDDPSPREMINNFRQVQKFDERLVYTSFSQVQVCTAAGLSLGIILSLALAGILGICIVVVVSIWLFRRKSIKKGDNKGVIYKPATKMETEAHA

The term melting point denotes the temperature, or range, at which the solid turns liquid. Usually Ki stands for the dissociation constant of the complex between target and ligand, obtained from inhibition or displacement. Compound `Cc1ccc2nccc(Nc3ccccc3S(N)(=O)=O)c2c1` [9a, 2-((6-methylquinolin-4-yl)amino)benzenesulfonamide] yielded a melting point of 264 to 265 °C. Further, in data set [1], affinity was put at a Ki of 0.0364 µM, the “Selectivity ratio I/IX” value turned out to be 15.3 and the “Selectivity ratio II/IX” value was 2.2. In data set [2], the Ki amounted to 0.0228 µM, the “Selectivity ratio I/XII” value came out at 24.5 and the “Selectivity ratio II/XII” value is listed as 3.4. The affinity in data set [3] corresponds to a Ki of 0.558 µM. Moreover, the inhibition constant (Ki) in data set [4] turned out to be 0.0784 µM.

In turn, `COc1ccc2nccc(Nc3ccccc3S(N)(=O)=O)c2c1` [9b, 2-((6-methoxyquinolin-4-yl)amino)benzenesulfonamide] came in with a melting point of 275 to 277 °C. For the same compound, in data set [1], the affinity, expressed as Ki, was 0.0392 µM; the “Selectivity ratio I/IX” value is reported as 22.1; the “Selectivity ratio II/IX” value was 1.3. Moreover, in data set [2], the affinity, expressed as Ki, was 0.0421 µM; the “Selectivity ratio I/XII” value was 20.5; the “Selectivity ratio II/XII” value was 1.2. Moreover, the inhibition constant (Ki) in data set [3] worked out at 0.864 µM. In addition, the Ki in data set [4] is 0.0497 µM.

For the compound `NS(=O)(=O)c1ccccc1Nc1ccnc2ccc(Cl)cc12` [9c, 2-((6-chloroquinolin-4-yl)amino)benzenesulfonamide], the melting point lay within 258 to 260 °C. In addition, in data set [1], the affinity, expressed as Ki, was 0.0656 µM; the “Selectivity ratio I/IX” value was determined as 18.9; the “Selectivity ratio II/IX” value is 1.3. In data set [2], the Ki was determined as 0.0384 µM, the “Selectivity ratio I/XII” value was found to be 32.3 and the “Selectivity ratio II/XII” value amounted to 2.3. In data set [3], this compound registered a Ki of 1.24 µM. In addition, in data set [4], the Ki was found to be 0.0868 µM.

For `NS(=O)(=O)c1ccccc1Nc1ccnc2cc(C(F)(F)F)cc(C(F)(F)F)c12` [9d, 2-((5,7-bis(trifluoromethyl)quinolin-4-yl)amino)benzenesulfonamide], the figures for the Ki in data set [3] and in data set [4] were 1.56 µM and 0.112 µM, respectively.

With `Cc1ccc2nccc(Nc3cccc(S(N)(=O)=O)c3)c2c1` [11a, 3-((6-methylquinolin-4-yl)amino)benzenesulfonamide], the melting point lay within 272 to 274 °C. In addition, in data set [1], the affinity, expressed as Ki, was 0.0701 µM; the “Selectivity ratio I/IX” value stood at 9.5; the “Selectivity ratio II/IX” value is reported as 3.8. In data set [2], the inhibition constant Ki was determined as 0.0412 µM, the “Selectivity ratio I/XII” value turned out to be 16.1 and the “Selectivity ratio II/XII” value was 6.4. For the same compound, in data set [3], affinity was put at a Ki of 0.663 µM. The compound also gave an inhibition constant (Ki) in data set [4] of 0.265 µM.

For the compound `COc1ccc2nccc(Nc3cccc(S(N)(=O)=O)c3)c2c1` [11b, 3-((6-methoxyquinolin-4-yl)amino)benzenesulfonamide], the melting point is 244 to 246 °C. Further, in data set [1], the affinity, expressed as Ki, was 0.0865 µM; the “Selectivity ratio I/IX” value turned out to be 3.0; the “Selectivity ratio II/IX” value is given as 4.2. For the same compound, in data set [2], the Ki came out at 0.0731 µM, the “Selectivity ratio I/XII” value is listed as 3.5 and the “Selectivity ratio II/XII” value came out at 5.0. In data set [3], this compound displayed an inhibition constant (Ki) of 0.258 µM. In data set [4], the Ki was 0.366 µM.

As for `NS(=O)(=O)c1cccc(Nc2ccnc3cc(C(F)(F)F)cc(C(F)(F)F)c23)c1` [11d, 3-((5,7-bis(trifluoromethyl)quinolin-4-yl)amino)benzenesulfonamide], the melting point fell in the range of 172 to 174 °C. In data set [1], the affinity corresponds to a Ki of 0.0529 µM, the “Selectivity ratio I/IX” value turned out to be 2.0 and the “Selectivity ratio II/IX” value turned out to be 4.2. In addition, in data set [2], the Ki came out at 0.034 µM, the “Selectivity ratio I/XII” value is on record as 3.1 and the “Selectivity ratio II/XII” value is on record as 6.5. Further, the inhibition constant Ki in data set [3] is 0.105 µM. Also, affinity in data set [4] was put at a Ki of 0.221 µM.

For `Cc1ccc2nccc(Nc3ccc(C)c(S(N)(=O)=O)c3)c2c1` [11e, 2-methyl-5-((6-methylquinolin-4-yl)amino)benzenesulfonamide], the melting point is 280 to 282 °C. Further, in data set [1], the Ki came to 0.104 µM, the “Selectivity ratio I/IX” value came out at 33.8 and the “Selectivity ratio II/IX” value turned out to be 14.5. In addition, in data set [2], affinity was put at a Ki of 0.0881 µM, the “Selectivity ratio I/XII” value was 39.7 and the “Selectivity ratio II/XII” value was 17.1. In data set [3], this compound registered a Ki of 3.5 µM. The Ki in data set [4] was determined as 1.5 µM.

Regarding `COc1ccc2nccc(Nc3ccc(C)c(S(N)(=O)=O)c3)c2c1` [11f, 5-((6-methoxyquinolin-4-yl)amino)-2-methylbenzenesulfonamide], the melting point lay within 248 to 250 °C. Also, in data set [1], the inhibition constant (Ki) was 0.853 µM, the “Selectivity ratio I/IX” value is on record as 2.6 and the “Selectivity ratio II/IX” value came out at 1.2. In addition, in data set [2], affinity was put at a Ki of 0.152 µM, the “Selectivity ratio I/XII” value was 14.8 and the “Selectivity ratio II/XII” value is given as 6.6. In data set [3], this compound gave a Ki of 2.26 µM. The compound also returned an inhibitory constant (Ki) in data set [4] of 0.998 µM.

For the compound `Cc1ccc(Nc2ccnc3ccc(Cl)cc23)cc1S(N)(=O)=O` [11g, 5-((6-chloroquinolin-4-yl)amino)-2-methylbenzenesulfonamide], the melting point lay within 282 to 285 °C. In data set [1], the inhibition constant (Ki) was determined as 0.116 µM, the “Selectivity ratio I/IX” value is 38.9 and the “Selectivity ratio II/IX” value was 20.3. Moreover, in data set [2], the Ki stood at 0.0927 µM, the “Selectivity ratio I/XII” value was 48.8 and the “Selectivity ratio II/XII” value came out at 25.4. In data set [3], this compound had a Ki of 4.52 µM. This compound gave a Ki in data set [4] of 2.36 µM.

`Cc1ccc2nccc(Nc3ccc(S(N)(=O)=O)cc3)c2c1` [13a, 4-((6-methylquinolin-4-yl)amino)benzenesulfonamide] displayed a melting point of 270 to 272 °C. Further, in data set [1], affinity was put at a Ki of 0.0258 µM, the “Selectivity ratio I/IX” value is listed as 3.0 and the “Selectivity ratio II/IX” value turned out to be 1.4. Further, in data set [2], the Ki stood at 0.0098 µM, the “Selectivity ratio I/XII” value worked out at 8.0 and the “Selectivity ratio II/XII” value amounted to 3.7. Besides, in data set [3], the affinity, expressed as Ki, was 0.0784 µM. Also, in data set [4], the Ki came out at 0.0365 µM.

For the compound `NS(=O)(=O)c1ccc(Nc2ccnc3ccc(Cl)cc23)cc1` [13c, 4-((6-chloroquinolin-4-yl)amino)benzenesulfonamide], the melting point lay in the range of 284 to 286 °C. In data set [1], the affinity, expressed as Ki, was 0.0186 µM; the “Selectivity ratio I/IX” value came to 3.0; the “Selectivity ratio II/IX” value amounted to 0.4. In data set [2], the inhibition constant (Ki) was 0.0087 µM, the “Selectivity ratio I/XII” value amounted to 6.4 and the “Selectivity ratio II/XII” value was 0.8. Besides, the inhibition constant (Ki) in data set [3] worked out at 0.0554 µM. For the same compound, in data set [4], the inhibition constant Ki was 0.0073 µM.

As a reminder, the IC50 is the concentration that gives 50% inhibition. Higher therefore signals a need for much substance. As for `COc1cccc2c1C(=O)c1c(O)c3c(c(O)c1C2=O)C[C@@](O)(C(=O)CO)C[C@@H]3O[C@H]1C[C@H](N)[C@H](O)[C@H](C)O1` [Doxorubicin, reference compound], the concentration for half-maximal inhibition (IC50) in data set [5] is 3.04 ± 0.14 µM; in data set [6] it was 1.67 ± 0.08 µM.

In turn, `COc1ccc2nccc(NNC(=O)c3ccc(S(N)(=O)=O)cc3)c2c1` [compound 16, 4-(2-(6-Methoxyquinolin-4-yl)hydrazine-1-carbonyl)benzenesulfonamide] showed a melting point of 228 to 230 °C. Besides, in data set [1], the affinity, expressed as Ki, was 0.0217 µM; the “Selectivity ratio I/IX” value is given as 3.8; the “Selectivity ratio II/IX” value is on record as 1.4. Moreover, in data set [2], the inhibition constant Ki is 0.0254 µM, the “Selectivity ratio I/XII” value was 3.2 and the “Selectivity ratio II/XII” value came out at 1.2. This compound yielded an inhibitory constant (Ki) in data set [3] of 0.0814 µM. Further, in data set [4], the Ki came to 0.0311 µM.
